This note sets out measurements from patent publication US6617335B1, “Preparation and drug composition of bis-benzyl-isoquinoline class alkaloids” (Kanghong USA, Inc., priority 2002, dated 2003).

One data set can be described thus: in vivo. On the procedure:
Method: LDs50 values for the compounds of formula (I) were calculated according to the method of Gaddum and Gu Han Yi.

The next data set deals with P388/adr cell line. Kind of data set: Isotopic determination of vincristine concentration in the P388/adr cell line. In kind it is cell-based. The settings on record: P388/adr MDR cells; for inhibition of MDR activity / intracellular isotope marker concentration compared with verapamil: three levels; for intracellular vinca alkaloid concentration, combined therapy vs other known MDR inhibitors (tetrandrine, fangchinoline, cepharanthine): low, middle and high dosages. On the procedure: Method: By using an isotope marker, differences were observed between intracellular vincristine concentrations during combined therapy and single therapy. […] The dosages were arranged in low, middle and high groups in parallel studies, results were calculated in dpm of vincristine concentration in the cell.

Data set [1] deals with Salmonella typhimurium TA97, TA98, TA100 and TA102. Put plainly: Mutagenicity test (Ames method). The settings on record: plate method, dosages 100, 20, 4, 0.8, 0.16. As to the method: Determinations were carried out the using Salmonella typhimurium […] mutants types TA97, TA98, TA100 and TA102 to detect the mutagenicity of said compound. Mutagenicity was determined according to the method of Ames. (Ames, B., et al. (1973). An improved bacterial test system for the detection and classification of mutagens and carcinogens. Proc. Natl. Acad. Sci. USA 70: 782-786). In the plate method with dosages of 100, 20, 4, 0.8, and 0.16, compared with the blank control, (self made compound S9), counting the number of reversed mutative colony changed, to decide the mutagenicity of the test compound.

Data set [2] deals with P388/adr. Put plainly: In vivo study of inhibition of MDR activity, nude mice xenografted with P388/adr. On the procedure:
Method: Using defined characteristics of […] P388/adr cell line in a nude mice model to determine the inhibition of MDR activity. Quantitative subcutaneous injection of P388 cell into the armpit of nude mice was followed for a certain period of time. […] The formulations and a cepharanthine control were administered by intraperitoneal injection for 2 to 4 times a day, and the animals consecutively observed for 10 days. Life span and survival rates were calculated.

The subject of data set [3] is P388/adr. Kind of data set: In vitro reversal of multi drug resistance to vinblastine in P388/adr cells. The settings on record: vinblastine against multi drug resistance cell line P388/adr. The format is cell-based. On the procedure: The IC50 value was in the range of 2-3 μg/mL, the reversal index against P388 was around 20, and most of the compounds completely reversed multi drug resistance of vinblastine-treated tumor cells.

For the molecule `CCCOc1c(OC)cc2c3c1Oc1cc4c(cc1OC)CCN(C)[C@H]4Cc1ccc(cc1)Oc1cc(ccc1OC)C[C@@H]3N(C)CC2`, the melting point (in general, the temperature, or range, at which the solid turns liquid) was in the range of 175 to 176 °C.
On to `COc1ccc2cc1Oc1ccc(cc1)C[C@H]1c3cc(c(OC)cc3CCN1C)Oc1c(OC)c(OC)c(Br)c3c1[C@H](C2)N(C)CC3` [Example 8, 5-bromo-tetrandrine], for which the median lethal dose (LD50) (as a rule, the dose expected to kill half of the subjects tested) at 1 month in “in vivo” (in vivo, route not stated at this place, read-out: acute toxicity LD50) is above 125 mg/kg. Also, the “LDs50, intraperitoneal administration” value in “in vivo” (intraperitoneal) is recorded as above 368 mg/kg bodyweight. Moreover, the “LDs50, intravenous administration” value in the data set “in vivo” (intravenous) is given as above 125 mg/kg bodyweight. Besides, the “inhibition of MDR activity / intracellular isotope marker concentration compared with verapamil” value with P388/adr cell line is given as “corresponding to verapamil”; in the data set with P388/adr cell line (listed as Example No. 8) it was “comparable to the available agent verapamil”. Further, the “intracellular vinca alkaloid concentration, combined therapy vs monotherapy” value in the data set with P388/adr cell line (isotope marker) is given as “significantly higher”. The “intracellular vinca alkaloid concentration, combined therapy vs other known MDR inhibitors (tetrandrine, fangchinoline, cepharanthine)” value in the data set with P388/adr cell line (isotope marker) is “significantly higher”; in the data set with P388/adr cell line (isotope marker, listed as Example No. 8), “higher”. Moreover, the “mutagenicity (Ames)” value in data set [1] is listed as “void of mutagenicity”. Moreover, the “inhibition of MDR activity of vinblastine against P388/adr compared with cepharanthine (VIII)” value in the data set on P388/adr [2] is listed as “significantly stronger”. The “increase of survival rates by the combined therapy” value in the data set with P388/adr [2] (combined therapy with vinca alkaloid vs monotherapy, intraperitoneal, observed 10 days) worked out at 37.7%.
Take `COc1cc(Br)c2cc1Oc1ccc(cc1)C[C@H]1c3cc(c(OC)cc3CCN1C)Oc1c(OC)c(OC)c(Br)c3c1[C@H](C2)N(C)CC3` [Example 9, 5,14-dibromo-tetrandrine]: the melting point lay in the range of 184 to 185 °C.
In the case of cepharanthine, in the data set on P388/adr [3], the IC50 value was 11.7 µg/mL.
